Data reported in patent US20080299062A1, “Use of Oxocarboxylic Acids-Containing Combinations for Deodorization” (priority 2004, published 2008).

Legend:
[1] = Odor of permanently waved hair strands, leave-on method (base: conditioner); conditions: for Odor rating vs blank, Day 1, pH 2-3 / Odor rating vs blank, Day 1, pH 4-5 / Odor rating vs blank, Day 2, pH 2-3 / Odor rating vs blank, Day 2, pH 4-5 / Odor rating vs blank, Day 3, pH 2-3 / Odor rating vs blank, Day 3, pH 4-5 / Odor rating vs blank, Day 4, pH 2-3 / Odor rating vs blank, Day 4, pH 4-5: test substance 0.01 wt. %; for Odor rating vs blank, Day 1, pH 2-3 / Odor rating vs blank, Day 1, pH 4-5: Day 1, wet; for Odor rating vs blank, Day 1, pH 2-3 / Odor rating vs blank, Day 2, pH 2-3 / Odor rating vs blank, Day 3, pH 2-3 / Odor rating vs blank, Day 4, pH 2-3: pH 2-3, each symbol = one test strand; for Odor rating vs blank, Day 1, pH 4-5 / Odor rating vs blank, Day 2, pH 4-5 / Odor rating vs blank, Day 3, pH 4-5 / Odor rating vs blank, Day 4, pH 4-5: pH 4-5, each symbol = one test strand; for Odor rating vs blank, Day 2, pH 2-3 / Odor rating vs blank, Day 2, pH 4-5: Day 2, dry; for Odor rating vs blank, Day 3, pH 2-3 / Odor rating vs blank, Day 3, pH 4-5: Day 3, wet; for Odor rating vs blank, Day 4, pH 2-3 / Odor rating vs blank, Day 4, pH 4-5: Day 4, dry; for odor-reducing action (efficacy), in words: pH 2-3 and pH 4-5, summary of Table 1
Description: The test substances were tested on hair that had been freshly permanently waved. To this end, hair braids were cut into 2.5-cm pieces, bleached for 30 minutes and washed with perfume-free shampoo. To obtain fully odorless strands, the strands were then dipped three times into a mixture of isopropanol 25%/ethanol 25%/water 50%. The hair was kept for 24 hours in a conditioning room (20° C. at 85% relative humidity) and then cut to a weight of 2 g. This was followed by an odor test. Ten strands per post-treatment agent to be tested were wound onto rollers (diameter: 13 mm) and kept overnight in the conditioning room (20° C. at 85% relative humidity). The next morning, these strands were subjected to permanent waving.
Ten rollers holding 2 g of hair each were placed in a crystallizing dish and covered twice with 20 g of a commercial wave lotion, the rollers being turned over after the first 20 g to ensure uniform distribution. The rollers were then placed in a drier at 40° C. for 15 min, after which they were rinsed with water for 5 minutes namely for 2 min under running city water and for an additional 3 min by immersing them in water. The hair was then dabbed dry with a paper napkin. Afterward, the fixation was carried out with the aid of a commercial foam fixative. To this end, the rollers were immersed for 3 min in 500 mL of fixing solution. Excess fixing solution was then poured off, and the rollers were allowed to stand for an additional 7 minutes. They were then again rinsed with water for 5 min (see above) and dabbed dry with a paper napkin. Finally, the hair was detached from the roller and placed in a drier at 40° C. for 60 minutes.
To test the efficacy of the compounds as permanent wave post-treatment agents, the zinc salts and the corresponding zinc-free acids alone were incorporated at two different pH values into common cosmetic product bases. Zinc citrate (trizinc dicitrate) made soluble with a slight excess of citric acid was tested as the reference substance for a zinc salt without the odor-influencing counterion. The oxocarboxylic acids were used both as the sodium salts and in the form of their zinc salts. The pH values were then adjusted with citric acid or NaOH.
In the following example, 0.5 mL of a leave-on conditioner was massaged into the freshly permanently waved hair (2 g in each case), and after a contact time of 10 min the odor was evaluated by five test subjects (Table 1). In each case, the odor evaluation was performed on 3 test strands. The average values of the evaluation results are tabulated.
Each symbol stands for one test strand. • ◯=odor indistinguishable from that of blank • +=odor better than that of blank • ++=odor appreciably better than that of blank/odorless

[2] = Odor of permanently waved hair strands, rinse-off method (base: hair-cure agent); conditions: for Odor rating vs blank, Day 1, pH 2-3 / Odor rating vs blank, Day 1, pH 4-5 / Odor rating vs blank, Day 2, pH 2-3 / Odor rating vs blank, Day 2, pH 4-5 / Odor rating vs blank, Day 3, pH 2-3 / Odor rating vs blank, Day 3, pH 4-5 / Odor rating vs blank, Day 4, pH 2-3 / Odor rating vs blank, Day 4, pH 4-5: rinse-off hair-cure agent, 5-min contact, table head 0.01 wt. % (text b103: 0.1 wt. %), each symbol = one test strand; for Odor rating vs blank, Day 1, pH 2-3 / Odor rating vs blank, Day 1, pH 4-5: Day 1, wet; for Odor rating vs blank, Day 2, pH 2-3 / Odor rating vs blank, Day 2, pH 4-5: Day 2, dry; for Odor rating vs blank, Day 3, pH 2-3 / Odor rating vs blank, Day 3, pH 4-5: Day 3, wet; for Odor rating vs blank, Day 4, pH 2-3 / Odor rating vs blank, Day 4, pH 4-5: Day 4, dry
[3] = Various odor tests carried out on permanently waved hair (general statements); conditions: sulfur odor of permanently waved hair; general statement

Compound | Odor rating vs blank, Day 1, pH 2-3 [1] | Odor rating vs blank, Day 1, pH 4-5 [1] | Odor rating vs blank, Day 2, pH 2-3 [1] | Odor rating vs blank, Day 2, pH 4-5 [1] | Odor rating vs blank, Day 3, pH 2-3 [1] | Odor rating vs blank, Day 3, pH 4-5 [1] | Odor rating vs blank, Day 4, pH 2-3 [1] | Odor rating vs blank, Day 4, pH 4-5 [1] | Odor rating vs blank, Day 1, pH 2-3 [2] | Odor rating vs blank, Day 1, pH 4-5 [2] | Odor rating vs blank, Day 2, pH 2-3 [2] | Odor rating vs blank, Day 2, pH 4-5 [2] | Odor rating vs blank, Day 3, pH 2-3 [2] | Odor rating vs blank, Day 3, pH 4-5 [2] | Odor rating vs blank, Day 4, pH 2-3 [2] | Odor rating vs blank, Day 4, pH 4-5 [2] | odor-reducing action (efficacy), in words [1] | odor-reducing effect on permanently waved hair, in words [3] | odor-reducing effect, in words ([2]; lowest concentrations in rinse-off products, applied immediately after permanent wave treatment or up to four days later)
O=CC(=O)[O-].[Na+] [Na glyoxylate] | ∘ + + | ∘ + ∘ | + + ∘ | + + ∘ | ∘ ∘ + | ∘ + + | ∘ + + | + ∘ + | ∘ ∘ ∘ | ∘ ∘ ∘ | + ∘ + | + ∘ + | ∘ ∘ + | + + ∘ | ∘ + + | ∘ + + |  |  | 
CC(=O)CCC(=O)[O-].[Na+] [Na levulinate] | + + + | + ∘ + | + + + | + ∘ + | ∘ + + | + + ∘ | + + + | + + + | + + + | + ∘ + | + + ∘ | + ∘ ∘ | ∘ + + | + ∘ ∘ | ∘ ∘ + | + ∘ ∘ |  |  | 
CC(=O)C(=O)[O-].[Na+] [Na pyruvate] | + ∘ + | ∘ ∘ + | ∘ + ∘ | ∘ + ∘ | ∘ + + | ∘ + + | ∘ + + | + + ∘ | ∘∘ + | ∘ + + | ∘ + + | ∘ + + | ∘ + + | ∘ + + | ∘ + + | ∘ + + |  |  | 
O=C([O-])CC(O)(CC(=O)[O-])C(=O)[O-].O=C([O-])CC(O)(CC(=O)[O-])C(=O)[O-].[Zn+2].[Zn+2].[Zn+2] [Trizinc dicitrate, trizinc dicitrate] | + ∘ ∘ | ∘ + + | ∘ + ∘ | ∘ + + | ∘ ∘ + | ∘ + + | ∘ + ∘ | + + + | ∘ ∘ ∘ | ∘ ∘ + | + ∘ ∘ | ∘ + + | ∘ ∘ + | ∘ + + | ∘ ∘ + | ∘ + + |  |  | 
O=CC(=O)[O-].O=CC(=O)[O-].[Zn+2] [Zn glyoxylate] | ∘ + + | + ∘ ∘ | ∘ ∘ ∘ | ∘ + + | ∘ ∘ + | + ∘ + | ∘ ∘ + | + + ∘ | ∘ ∘ ∘ | ∘ + + | ∘ ∘ ∘ | + ∘ + | ∘ ∘ + | + + ∘ | ∘ ∘ + | ∘ + + |  |  | 
CC(=O)C(=O)[O-].CC(=O)C(=O)[O-].[Zn+2] [Zn pyruvate] | ∘ + ∘ | + + + | ∘ ∘ ∘ | + + + | ∘ ∘ ∘ | ∘ + + | ∘ ∘ ∘ | + + + | ∘ ∘ ∘ | ∘ + ∘ | ∘ ∘ ∘ | + ∘ + | ∘ ∘ ∘ | ∘ + + | ∘ ∘ ∘ | + + + |  |  | 
CC(=O)CCC(=O)O [levulinic acid, 4-oxopentanoic acid] |  |  |  |  |  |  |  |  |  |  |  |  |  |  |  |  | some odor-reducing action in strong acids | effective odor reducer | 
zinc levulinate [Zn levulinate] | + + + | ++ ++ and ++ | + + + | + + ++ | + + + | ++ ++ and ++ | + + + | + ++ and ++ | + + + | ++ ++ and ++ | + + + | + + + | + + + | + + + | + + + | ++ + ++ | unique in the entire pH range tested | much more intense than that of any other zinc compound | drastic odor-reducing effect
